Calls of active or inactive are those of the source. No cut-off for these calls is given here.
Key:
[1] = Inhibition of Bacillus stearothermophilus alpha-glucosidase; set-up: species or system Geobacillus stearothermophilus
[2] = Retention time of the compound by HPLC-SPE-NMR analysis; assay type: physicochemical
[3] = test system: Geobacillus stearothermophilus; test: Inhibition of Bacillus stearothermophilus alpha-glucosidase at 10 ug/ml
[4] = Cytotoxicity against human WS1 cells; assay type: cell-based

| IC50 [1] | Retention_time [2] | inhibition [3] | SMILES | IC50 [4] |
| --- | --- | --- | --- | --- |
|  | 51.4 min |  | O=C(/C=C/c1ccccc1)OC[C@H]1O[C@@H](Oc2cc(O)c3c(=O)cc(-c4ccc(O)c(O)c4)oc3c2)[C@H](O)[C@@H](O)[C@@H]1O |  |
| 8.8 µM | 41.8 min |  | COc1cc(/C=C/C(=O)OC[C@H]2O[C@@H](Oc3cc(O)c4c(=O)cc(-c5ccc(O)cc5)oc4c3)[C@H](O)[C@@H](O)[C@@H]2O)ccc1O |  |
| 35.7 µM | 29.9 min |  | O=C(/C=C/c1ccc(O)cc1)O[C@@H]1[C@@H](O)[C@H](O)[C@@H](CO)O[C@H]1c1c(O)cc2oc(-c3ccc(O)c(O)c3)cc(=O)c2c1O |  |
|  |  | inactive | O=c1cc(-c2ccc(O[C@@H]3O[C@H](CO)[C@@H](O)[C@H](O)[C@H]3O)c(O)c2)oc2cc(O)cc(O)c12 |  |
| 61.2 µM | 19.5 min |  | O=c1cc(-c2ccc(O)cc2)oc2cc(O)c([C@@H]3O[C@H](CO)[C@@H](O)[C@H](O)[C@H]3O)c(O)c12 [ISOVITEXIN] |  |
|  | 51.4 min |  | COc1cc(-c2cc(=O)c3c(O)cc(O)cc3o2)ccc1O [CHRYSOERIOL] |  |
|  | 20.7 min | inactive | O=c1cc(-c2ccc(O)c(O)c2)oc2cc(O[C@@H]3O[C@H](CO)[C@@H](O)[C@H](O)[C@H]3O)cc(O)c12 [GALUTEOLIN] |  |

Further lines, the compound ahead of its results:

| SMILES | IC50 [1] | Retention_time [2] | inhibition [3] | IC50 [4] |
| --- | --- | --- | --- | --- |
| C[C@H]1O[C@H](O[C@H]2[C@H](O)[C@@H](O)[C@@H](O[C@H]3[C@H](O)[C@@H](O)C(O)O[C@@H]3CO)O[C@@H]2CO)[C@H](O)[C@@H](O)[C@@H]1N[C@H]1C=C(CO)[C@@H](O)[C@H](O)[C@H]1O (stereo not given in full) [ACARBOSE] | 0.033 µM |  |  |  |
| COc1cc(/C=C/C(=O)O[C@@H]2[C@@H](O)[C@H](O)[C@@H](CO)O[C@H]2c2c(O)cc3oc(-c4ccc(O)c(O)c4)cc(=O)c3c2O)cc(OC)c1O |  | 29.1 min |  |  |
| O=c1cc(-c2ccc(O)c(O)c2)oc2cc(O)cc(O)c12 [LUTEOLIN] | 86.1 µM |  |  |  |
| O=C(/C=C\c1ccccc1)OC[C@H]1O[C@@H](Oc2cc(O)c3c(=O)cc(-c4ccc(O)cc4)oc3c2)[C@H](O)[C@@H](O)[C@@H]1O | 11.3 µM | 57.4 min |  |  |
| O=C(/C=C\c1ccc(O)cc1)OC[C@H]1O[C@@H](Oc2cc(O)c3c(=O)cc(-c4ccc(O)cc4)oc3c2)[C@H](O)[C@@H](O)[C@@H]1O | 10.1 µM | 44.9 min |  |  |
| O=c1cc(-c2ccc(O)c(O)c2)oc2cc(O)c([C@@H]3O[C@H](CO)[C@@H](O)[C@H](O)[C@H]3O)c(O)c12 [ISOORIENTIN] | 1530 µM | 14.9 min |  |  |
| O=C(/C=C/c1ccc(O)cc1)OC[C@H]1O[C@@H](Oc2cc(O)c3c(=O)cc(-c4ccc(O)cc4)oc3c2)[C@H](O)[C@@H](O)[C@@H]1O | 14.6 µM | 43.4 min |  | 42 µM |
| O=c1cc(-c2ccc(O)cc2)oc2cc(O)cc(O)c12 [APIGENIN] | 34.6 µM | 50.2 min |  |  |
| O=C(/C=C/c1ccc(O)cc1)O[C@@H]1[C@@H](O)[C@H](O)[C@@H](CO)O[C@H]1c1c(O)cc2oc(-c3ccc(O)cc3)cc(=O)c2c1O | 4.3 µM | 36.5 min |  |  |
| O=c1cc(-c2ccc(O)c(O)c2)oc2c([C@@H]3O[C@H](CO)[C@@H](O)[C@H](O)[C@H]3O)c(O)cc(O)c12 [ORIENTIN] |  | 16.6 min |  |  |
| O=c1cc(-c2ccc(O)cc2)oc2cc(O[C@@H]3O[C@H](CO)[C@@H](O)[C@H](O)[C@H]3O)cc(O)c12 [APIGETRIN] |  | 25.7 min | inactive |  |
